Columns and labels:
[1] = system: Mus musculus; assay: In vivo analgesic activity in the mouse tail-flick assay following i.c.v. administration.; format: functional
[2] = organism: Cavia porcellus; assay: In vitro inhibition of contractions in the electrically stimulated guinea pig ileum.; format: functional
[3] = Half-life was determined; format: ADME; conditions: human
[4] = Half-life of the compound; format: ADME
[5] = system: Mus musculus; assay: In vivo analgesic activity in the mouse tail-flick assay following s.c. administration.; format: functional; conditions: sc
[6] = system: Mus musculus; assay: In vivo analgesic potency in mice compared to morphine after s.c. administration.; format: functional
[7] = system: Mus musculus; assay: In vivo analgesic potency in mice compared to morphine after i.c.v. administration.; format: functional

For `C[C@@H](NC(=O)[C@@H](N)Cc1ccc(O)cc1)C(=O)N[C@@H](Cc1ccccc1)C(=O)NCNC(=O)Cc1ccccc1`, the ED50 [1] was 74.1 pmol/mouse, the IC50 [2] was 2.12 nM and the half-life [3] was 60 min. It also gave a half-life [4] of 45 min and an ED50 [5] of 27.8 µmol/kg.

`C[C@@H](NC(=O)[C@@H](N)Cc1ccc(O)cc1)C(=O)N[C@@H](Cc1ccccc1)NC(=O)CC(=O)NC12CC3CC(CC(C3)C1)C2` showed an ED50 [1] of 88.4 pmol/mouse, an IC50 [2] of 4.45 nM and a half-life [3] of 65 min. For the same molecule, the half-life [4] was 50 min and the ED50 [5] was 55.5 µmol/kg.

Work on `CCONC(=O)CC(=O)N[C@H](Cc1ccccc1)NC(=O)[C@@H](C)NC(=O)[C@@H](N)Cc1ccc(O)cc1` yielded an ED50 [1] of 1630 pmol/mouse, an IC50 [2] of 320 nM and a half-life [3] of 30 min.

With `C[C@@H](NC(=O)[C@@H](N)Cc1ccc(O)cc1)C(=O)N[C@@H](Cc1ccccc1)C(=O)NCC(=O)N[C@@H](Cc1ccc(O)cc1)C(=O)N1CCC[C@H]1C(=O)N[C@@H](CO)C(N)=O` [DERMORPHIN] the ED50 [1] was 11.4 pmol/mouse, the half-life [3] was 40 min and the half-life [4] was 35 min. It also gave an ED50 [5] of 2.75 µmol/kg.

`CC(C(=O)NCC(=O)N[C@H](Cc1ccccc1)N(C)C(=O)[C@@H](C)NC(=O)[C@@H](N)Cc1ccc(O)cc1)c1ccccc1` (stereo partly specified) gave an ED50 [1] of 269 pmol/mouse, an IC50 [2] of 31.2 nM and a half-life [3] of 60 min.

Work on `CC(NC(=O)CNC(=O)[C@H](Cc1ccccc1)NC(=O)[C@@H](C)NC(=O)[C@@H](N)Cc1ccc(O)cc1)c1ccccc1` (stereo partly specified) yielded an ED50 [1] of 7.61 pmol/mouse, an IC50 [2] of 0.59 nM and a half-life [3] of 40 min. It also gave an ED50 [5] of 13.6 µmol/kg.

Molecule `CN1CC[C@]23c4c5ccc(O)c4O[C@H]2[C@@H](O)C=C[C@H]3[C@H]1C5` [MORPHINE] has an ED50 [1] of 3030 pmol/mouse and an ED50 [5] of 10.9 µmol/kg.

Molecule `C[C@@H](NC(=O)[C@@H](N)Cc1ccc(O)cc1)C(=O)N[C@@H](Cc1ccccc1)C(=O)NCC(=O)NCc1ccccc1` has an ED50 [1] of 33.1 pmol/mouse, an IC50 [2] of 2.97 nM and a half-life [3] of 30 min.

`CCONC(=O)CNC(=O)[C@H](Cc1ccccc1)NC(=O)[C@@H](C)NC(=O)[C@@H](N)Cc1ccc(O)cc1` gave an ED50 [1] of 492 pmol/mouse, an IC50 [2] of 191 nM and a half-life [3] of 20 min.

With `C[C@@H](NC(=O)[C@@H](N)Cc1ccc(O)cc1)C(=O)N[C@@H](Cc1ccccc1)C(=O)NCNC(=O)C12CC3CC(CC(C3)C1)C2` the ED50 [1] was 10.9 pmol/mouse, the IC50 [2] was 0.31 nM and the half-life [3] was 80 min. The half-life [4] was 65 min and the ED50 [5] was 21.7 µmol/kg.

With `C[C@@H](NC(=O)[C@@H](N)Cc1ccc(O)cc1)C(=O)N[C@@H](Cc1ccccc1)C(=O)NCNC=O` the ED50 [1] was 157 pmol/mouse, the IC50 [2] was 39.2 nM and the half-life [3] was 40 min.

With `C[C@@H](NC(=O)[C@@H](N)Cc1ccc(O)cc1)C(=O)N(C)[C@@H](Cc1ccccc1)NC(=O)CNC(=O)C12CC3CC(CC(C3)C1)C2` the ED50 [1] was 246 pmol/mouse, the IC50 [2] was 19.2 nM and the half-life [3] was 55 min.

Work on `C[C@@H](NC(=O)[C@@H](N)Cc1ccc(O)cc1)C(=O)N(C)[C@@H](Cc1ccccc1)NC(=O)CNC=O` yielded an ED50 [1] of 642 pmol/mouse, an IC50 [2] of 380 nM and a half-life [3] of 35 min.

`C[C@@H](NC(=O)[C@@H](N)Cc1ccc(O)cc1)C(=O)N[C@@H](Cc1ccccc1)C(=O)NCC(=O)NO` gave an ED50 [1] of 140 pmol/mouse, an IC50 [2] of 108 nM and a half-life [3] of 25 min.

Molecule `C[C@@H](NC(=O)[C@@H](N)Cc1ccc(O)cc1)C(=O)N[C@@H](Cc1ccccc1)NC(=O)CC(=O)NO` has an ED50 [1] of 1600 pmol/mouse, an IC50 [2] of 330 nM and a half-life [3] of 30 min.

In the case of `C[C@@H](NC(=O)[C@@H](N)Cc1ccc(O)cc1)C(=O)N(C)[C@@H](Cc1ccccc1)NC(=O)CNC(=O)Cc1ccccc1`, the ED50 [1] is reported as 292 pmol/mouse, the IC50 [2] is reported as 25.2 nM and the half-life [3] is reported as 45 min.

`CC(NC(=O)CC(=O)N[C@H](Cc1ccccc1)NC(=O)[C@@H](C)NC(=O)[C@@H](N)Cc1ccc(O)cc1)c1ccccc1` (stereo partly specified) gave an ED50 [1] of 88.6 pmol/mouse, an IC50 [2] of 2.05 nM and a Relative potency [6] of 0.24. It also gave a half-life [3] of 65 min, a half-life [4] of 60 min and an ED50 [5] of 44.2 µmol/kg.

Molecule `C[C@@H](NC(=O)[C@@H](N)Cc1ccc(O)cc1)C(=O)N[C@@H](Cc1ccccc1)NC(=O)CC(=O)NCc1ccccc1` has an ED50 [1] of 556 pmol/mouse, an IC50 [2] of 18.2 nM and a half-life [3] of 35 min.

With `CC(C(=O)NCNC(=O)[C@H](Cc1ccccc1)NC(=O)[C@@H](C)NC(=O)[C@@H](N)Cc1ccc(O)cc1)c1ccccc1` (stereo partly specified) the ED50 [1] was 19.2 pmol/mouse, the IC50 [2] was 0.5 nM and the half-life [3] was 65 min. The half-life [4] was 65 min and the ED50 [5] was 39.5 µmol/kg.

In the case of `C[C@@H](NC(=O)[C@@H](N)Cc1ccc(O)cc1)C(=O)N[C@@H](Cc1ccccc1)NC(=O)CC(N)=O`, the ED50 [1] is reported as 974 pmol/mouse, the IC50 [2] is reported as 242 nM and the half-life [3] is reported as 35 min. The Relative potency [7] was 3.11.

Molecule `C[C@@H](NC(=O)[C@@H](N)Cc1ccc(O)cc1)C(=O)N[C@@H](Cc1ccccc1)C(=O)NCC(=O)NC12CC3CC(CC(C3)C1)C2` has an ED50 [1] of 5.12 pmol/mouse, an IC50 [2] of 2.05 nM and a half-life [3] of 35 min. For the same molecule, the ED50 [5] was 18.8 µmol/kg.

Work on `C[C@@H](NC(=O)[C@@H](N)Cc1ccc(O)cc1)C(=O)N[C@@H](Cc1ccccc1)C(=O)NCC(N)=O` yielded an ED50 [1] of 68 pmol/mouse, an IC50 [2] of 45.2 nM and a half-life [3] of 30 min. For the same molecule, the ED50 [5] was 68.1 µmol/kg.

— ChEMBL document CHEMBL1123014, “Synthesis and pharmacological activity of partially modified retro-inverso dermorphin tetrapeptides” (J Med Chem, 1985)
